Tests used:
[1] = stability test of aqueous solution, ratio of compound remaining after storage (HPLC); assay type: physicochemical; conditions: 2 mass % in purified water, glass bottle, 40° C., light-shielding, 10 days
Method: (under light-shielding condition) for 10 days. The ratio of the compound remaining after the storage was analyzed by using a high-performance liquid chromatograph equipped with Shodex (registered trademark of Showa Denko K.K.) SB802.5 HQ (mfd. by Showa Denko K.K.) column.
(Measurement Conditions for High-Performance Liquid Chromatography)

guinea pig incised wound = test: collagen synthesis-accelerating effect in guinea pig model system having an incised wound; assay type: in vivo; conditions: for Detachment tension / Hydroxyproline content: 0.2 ml test solution twice a day for four days (1) 2%; 2) and 3) 1%); for Detachment tension: incised wound on back; for Hydroxyproline content: skin section with incised wound, index of collagen; for effect on collagen synthesis and recovery of incised wound (in words): guinea pig incised wound
Text: The collagen synthesis-accelerating effects of the following 1) to 3) test substances was compared with each other, by using a guinea pig model system having an incised (or cut) wound. The base material for dissolving each test substance was purified water containing 20% of ethanol, and 3% of propylene glycol. In this experiment, two incised wounds each having a length of 2 cm were formed on the back of a guinea pig by using a scalpel, so that the incised wounds are positioned symmetrically with regard to the center portion of the back. Then, 0.2 ml of the test substance solution was administered thereto twice a day, for four days. After the last administration was completed, a skin piece of 2 cm×2 cm (square shape) was surgically removed from the back of the guinea pig, so that the incised wound portions were positioned substantially at the center of the skin piece. Then, the tension required for the detachment of the incised wound surface was measured. Five guinea pigs were used with respect to one kind of the test substances. […] After the separation thereof by centrifugation, the resultant supernatant was freeze-dried. The protein content of the thus obtained skin sample was hydrolyzed with hydrochloric acid, and was subjected to amino acid analysis by use of AccQ.Tag Amino acid Analyzer (mfd. by Waters Co.). The results of the detachment tension measurement for the incised wound portion to which each test substance had been applied, and the hydroxyproline content thereof were as follows. Herein, the hydroxyproline is a substance which can be taken as an index of collagen.

[2] = tested on: human skin tissue three-dimensional model (TESTSKIN LSD-d); test: amount of ascorbic acid in human skin tissue three-dimensional model after application of test solution; assay type: cell-based; conditions: for amount of the ascorbic acid, 2 hours after culture / amount of the ascorbic acid, 6 hours after culture / amount of the ascorbic acid, 12 hours after culture: 40 μL test solution in Dulbecco PBS(−) applied 2 h (1) 2%; 2) and 3) 0.5%), removed; for amount of the ascorbic acid, 2 hours after culture: then cultured 2 hours; for amount of the ascorbic acid, 6 hours after culture: then cultured 6 hours; for amount of the ascorbic acid, 12 hours after culture: then cultured 12 hours; for concentration of ascorbic acid in the tissue (in words): administered to the skin model
Method: To the surface of a human skin tissue three-dimensional model (trademark: TESTSKIN LSD-d, mfd. by Toyobo Co., Ltd.), 40 μL of a solution which had been obtained by dissolving each of the substances (1) to (3) to be tested in Dulbecco PBS (−), and the resultant skin tissue model was cultured at 37° C. in the presence of 5% CO2 for two hours. Then, the test solution was removed by aspiration, and thereafter the skin tissue model was cultured at 37° C. in the presence of 5% CO2 for 2, 6 and 12 hours, respectively.
Each of the portions of the skin model which had been sampled at each culture time was washed with Dulbecco PBS (−), the surface portion was punched out by using a punch having a diameter of 6 mm φ, and homogenized in a HEPES buffer solution (pH 7.2) to obtain a homogenate. By use of the thus obtained homogenate, the amount of the ascorbic acid contained in the skin model was quantitatively analyzed by using a high performance liquid chromatography. The protein content in the skin model was quantitatively analyzed by using the Lowry method.
Measurement Conditions for High Performance Liquid Chromatography

| SMILES | Residual Ratio (%) [1] [%] | Detachment tension (guinea pig incised wound) [g/cm] | Hydroxyproline content (guinea pig incised wound) [nmol/skin wet weight] | amount of the ascorbic acid, 2 hours after culture [2] [nmol/mg skin protein] | amount of the ascorbic acid, 6 hours after culture [2] [nmol/mg skin protein] | amount of the ascorbic acid, 12 hours after culture [2] [nmol/mg skin protein] | concentration of ascorbic acid in the tissue (in words) [2] | effect on collagen synthesis and recovery of incised wound (in words) (guinea pig incised wound) |
| --- | --- | --- | --- | --- | --- | --- | --- | --- |
| O=C1O[C@H]([C@@H](O)CO)C(O)=C1OP(=O)([O-])[O-].[Na+].[Na+] [Comparative Example A-2, L-ascorbic acid-2-phosphate sodium salt, reference compound] | 96.9 | 123 | 32.1 | – | – | – | – | – |
| CCCCCCCCCCCCCCCC(=O)OC[C@H](O)[C@H]1OC(=O)C(OP(=O)(O)O)=C1O.[Na] [Comparative Example A-1, L-ascorbic acid-2-phosphoric acid-6-palmitatic acid ester sodium salt, reference compound] | 88.6 | – | – | – | – | – | – | – |
| CCCCCCCCCC(CCCCCCC)C(=O)OC[C@H](O)[C@H]1OC(=O)C(OP(=O)(O)O)=C1O.[Na] (stereo partly drawn) [Example A-2, L-Ascorbic Acid-2-Phosphoric Acid-6-(2′-n-Heptylundecanoate) sodium salt] | 95.5 | 187 | 37.6 | 5 | 11 | 26 | concentration of the ascorbic acid in the tissue could easily be enhanced effectively | had an effect of accelerating the collagen synthesis |
| CCCCCCCCC(CCCCCC)C(=O)OC[C@H](O)[C@H]1OC(=O)C(OP(=O)(O)O)=C1O.[Na] (stereo partly drawn) [Example A-1, L-Ascorbic acid-2-phosphoric acid-6-(2′-hexyldecanoate) sodium salt] | 95.3 | 181 | 38.5 | 6 | 10 | 23 | concentration of the ascorbic acid in the tissue could easily be enhanced effectively | had an effect of accelerating the collagen synthesis |
